{"source": "patent US11441144B2", "about": "“Methods of polynucleotide preparation using multivalent cation salt compositions” (Geron Corporation, priority 2015, dated 2022)", "assay": "Solubility of precipitate in 0.1M NaOH", "format": "physicochemical", "settings": "salts precipitated in a large excess of salt reagent", "source_text": "The crystallization or precipitation of divalent or trivalent forms of Imetelstat was investigated using a large excess of inorganic salts of interest (900 equivalents, weight base). […] Three types of Imetelstat solution: crude Imetelstat solution (ammonium salt), purified Imetelstat (triethylammonium (TEA) salt form), and Imetelstat sodium (Na salt form), were mixed with each salt solution.\nThe solubilities of the precipitates isolated under the conditions of large excess of salt regent were initially investigated using the following solvents: water, acetonitrile, MeOH, EtOH, IPA (isopropyl alcohol), 0.1M NaOH, 0.1M HCl, 1M NaCl, and NMP.\n(see Table 2). Solubility studies of Imetelstat precipitate obtained from a large excess of magnesium salt reagent were conducted in 1M NaCl solutions at different concentrations (2 mg/mL to 6 mg/mL) and under different pH conditions (pH 8, 9, 10, 11, 12) and analyzed by HPLC (see chromatograms of FIG. 1).", "data": [{"substance": "BaCl2", "values": [{"measurement": "Solubility in a 0.1M NaOH and 1M NaCl solution", "result": "soluble"}]}]}
